Reference: patent publication US9603860B2, “Pharmaceutical compositions comprising active drugs, contraceptive kits comprising active drugs, and methods of administering the same” (LABORATORIOS LEON FARMA SA, priority 2010, dated 2017)

Tests used:
[1] = Specific area by BET method; format: physicochemical
Method: The specific area was determined by the BET method.

[2] = Particle size distribution by laser diffraction in wet dispersion; format: physicochemical; settings: dispersant water
Method: The analysis of the particle size distribution of each batch was performed by laser diffraction method in wet dispersion (Helos sensor, Sympatec with the wet disperser Quixel). The dispersant used was water. The full particle dispersion was ensured by ultrasonication.

ovulation = test: Contraceptive efficiency trial, 24/4 regimen (ovulation inhibition, Example 5, Part 3); format: in vivo, human
Method: The study was an open-label monocentric trial. […] Excluded were subjects with a (suspected) pregnancy, active or past thromboembolic disorder, present or past severe hepatic disease, carcinoma of the endometrium or other known or suspected estrogen-dependent neoplasia, undiagnosed vaginal bleeding, use of liver enzyme-inducing drugs and other drugs.
The subjects received daily treatment with tablets containing about 4 mg DRSP with a 24/4 regimen during two treatment cycles. The subjects started treatment on the 1st day of the cycle (i.e., the first day of onset of vaginal bleeding) following the screening visit. […]
Blood sampling for hormonal determination (progesterone, 17-beta-estradiol, FSH and LH) was performed every 3 days from day 1 to day 84 and assessments of weight, blood pressure and heart rate were performed at each visit. Serum progesterone, 17-beta-estradiol, FSH and LH concentrations were measured with validated commercial in vitro diagnostic kits (V1DAS, ELFA Biomerieux). […]
The occurrence of ovulation during treatment was determined on the basis of serum progesterone concentration, using the criteria of Landgren et al. Thus, an ovulation was judged to have occurred in case of progesterone concentrations >5.04 ng/ml-sustained for at least 2 consecutive progesterone samples.

SMILES | Specific area [1] | d10 [2] | d50 [2] | d90 [2] | d99 [2] | ovulation during the 2 treatment cycles (ovulation; 24/4 regimen, ovulation = progesterone >5.04 ng/ml in 2 consecutive samples) | women with progesterone above 5.04 ng/mL (return of ovulation) in 28-day follow-up cycle (ovulation; upon cessation of treatment)
C[C@]12CCC(=O)C=C1[C@@H]1C[C@@H]1[C@H]1[C@@H]3[C@@H]4C[C@@H]4[C@@]4(CCC(=O)O4)[C@@]3(C)CC[C@@H]12 [PR100003, Drospirenone] | 0.26 m^2/g | 5.9 μm | 22.4 μm | 37.4 μm | 56.1 μm |  | 
C[C@]12CCC(=O)C=C1[C@@H]1C[C@@H]1[C@H]1[C@@H]3[C@@H]4C[C@@H]4[C@@]4(CCC(=O)O4)[C@@]3(C)CC[C@@H]12 [PR100311, Drospirenone] | 0.66 m^2/g |  |  |  |  |  | 
C[C@]12CCC(=O)C=C1[C@@H]1C[C@@H]1[C@H]1[C@@H]3[C@@H]4C[C@@H]4[C@@]4(CCC(=O)O4)[C@@]3(C)CC[C@@H]12 [DRSP, 6b,7b:15b,16b-Dimethylen-3-oxo-17a-pregn-4-ene-21,17-carbolactone] |  |  |  |  |  | no ovulation occurred | 17 out of 20
C[C@]12CCC(=O)C=C1[C@@H]1C[C@@H]1[C@H]1[C@@H]3[C@@H]4C[C@@H]4[C@@]4(CCC(=O)O4)[C@@]3(C)CC[C@@H]12 [compound 080169, Drospirenone] | 0.45 m^2/g | 2.9 μm | 24.5 μm | 37.1 μm | 48.9 μm |  | 
C[C@]12CCC(=O)C=C1[C@@H]1C[C@@H]1[C@H]1[C@@H]3[C@@H]4C[C@@H]4[C@@]4(CCC(=O)O4)[C@@]3(C)CC[C@@H]12 [compound 080053, Drospirenone] | 0.63 m^2/g | 7.2 μm | 19.8 μm | 34.2 μm | 44.8 μm |  | 
C[C@]12CCC(=O)C=C1[C@@H]1C[C@@H]1[C@H]1[C@@H]3[C@@H]4C[C@@H]4[C@@]4(CCC(=O)O4)[C@@]3(C)CC[C@@H]12 [compound 080257, Drospirenone] | 0.77 m^2/g | 5.3 μm | 12.6 μm | 23.4 μm | 35.3 μm |  | 
C[C@]12CCC(=O)C=C1[C@@H]1C[C@@H]1[C@H]1[C@@H]3[C@@H]4C[C@@H]4[C@@]4(CCC(=O)O4)[C@@]3(C)CC[C@@H]12 [compound 080204, Drospirenone] | 0.83 m^2/g | 4.4 μm | 13.1 μm | 24.8 μm | 34.5 μm |  | 
